Source: patent US9164102B2, “Methods of screening for TRPM4b modulators” (The Queen's Medical Center, priority 2002, dated 2015)

Molecular target: T1, TRPM4b (Homo sapiens, UniProt Q8TD43)
T1 construct: expressed in transfected cells
Experiment: Patch-clamp recordings of TRPM4b currents in HEK-293 cells at buffered intracellular Ca2+
Assay type: cell-based
Conditions: cytosolic/intracellular Ca2+
Method: Wild type and tetracycline-inducible […] Flag-TRPM4b-expressing cells were cultured at 37° C./5% CO2 in DMEM supplemented with 10% FBS and 2 mM glutamine. The medium was supplemented with blasticidin (5 μg/ml; Invitrogen) and zeocin (0.4 mg/ml; Invitrogen). Cells were resuspended in media containing 1 μg/ml tetracycline (Invitrogen) 24 hours before experiments. For patch-clamp experiments, cells were kept in a standard Ringer's solution (in mM): NaCl 145, KCl 2.8, CaCl2 1, MgCl2 2, glucose 10, Hepes.NaOH 10, pH 7.2. In some experiments, this solution was modified such that all but 1 mM of NaCl was replaced by choline-Cl (choline-based solution). In experiments where ATP was used, it was added at 1 mM of the Mg^2+ salt and extracellular Ca^2+ concentration was raised to 2 mM. The standard pipette-filling solutions contained (in mM): K-glutamate 145, NaCl 8, MgCl2 1, Cs-BAPTA 10, pH 7.2 adjusted with KOH. In some experiments, [Ca^2+]i was buffered to […] by 10 mM BAPTA and appropriate concentrations of CaCl2 or left unbuffered. For inside-out single-channel recordings, the patch was excised into a similar solution, except that KCl was used instead of K-glutamate. All reagents were purchased from Sigma and dissolved in the standard intracellular solution. […] Capacitive currents and series resistance were determined and corrected before each voltage ramp. […]

T1 sequence (Q8TD43 whole entry): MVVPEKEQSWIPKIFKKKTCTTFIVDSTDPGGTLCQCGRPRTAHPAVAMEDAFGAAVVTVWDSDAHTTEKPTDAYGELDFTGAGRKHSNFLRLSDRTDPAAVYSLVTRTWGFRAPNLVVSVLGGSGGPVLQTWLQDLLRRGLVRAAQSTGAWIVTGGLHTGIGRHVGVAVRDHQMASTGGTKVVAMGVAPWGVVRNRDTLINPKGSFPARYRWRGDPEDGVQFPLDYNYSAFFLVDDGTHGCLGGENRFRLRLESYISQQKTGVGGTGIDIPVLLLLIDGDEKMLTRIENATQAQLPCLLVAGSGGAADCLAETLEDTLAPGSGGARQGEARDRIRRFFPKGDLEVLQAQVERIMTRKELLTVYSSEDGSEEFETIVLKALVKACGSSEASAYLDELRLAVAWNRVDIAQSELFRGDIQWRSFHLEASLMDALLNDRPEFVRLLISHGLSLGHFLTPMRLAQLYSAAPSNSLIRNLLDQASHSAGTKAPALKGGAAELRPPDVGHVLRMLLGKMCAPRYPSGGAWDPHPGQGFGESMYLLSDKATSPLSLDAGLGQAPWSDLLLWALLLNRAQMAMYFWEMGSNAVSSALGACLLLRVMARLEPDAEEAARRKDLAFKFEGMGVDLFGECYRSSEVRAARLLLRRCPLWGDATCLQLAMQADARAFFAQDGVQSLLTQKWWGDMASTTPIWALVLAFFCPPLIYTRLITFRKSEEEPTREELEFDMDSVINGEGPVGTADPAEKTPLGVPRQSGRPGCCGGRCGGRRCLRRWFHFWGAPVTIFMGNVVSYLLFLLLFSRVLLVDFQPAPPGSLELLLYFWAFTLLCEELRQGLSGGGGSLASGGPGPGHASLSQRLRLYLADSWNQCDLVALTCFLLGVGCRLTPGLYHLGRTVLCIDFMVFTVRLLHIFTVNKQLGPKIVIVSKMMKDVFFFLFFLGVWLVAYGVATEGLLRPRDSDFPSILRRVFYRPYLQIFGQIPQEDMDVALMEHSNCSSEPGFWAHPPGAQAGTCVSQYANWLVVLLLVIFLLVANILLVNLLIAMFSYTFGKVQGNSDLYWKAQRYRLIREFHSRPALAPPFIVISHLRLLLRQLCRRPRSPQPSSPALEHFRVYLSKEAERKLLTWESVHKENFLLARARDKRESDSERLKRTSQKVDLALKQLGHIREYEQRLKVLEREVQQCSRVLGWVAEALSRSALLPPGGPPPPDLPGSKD

For `[Ca+2]` [Ca^2+], which “Ca^2+ concentration at which direct gating of the TRPM4b channel appears to begin” value is on record?
Its value is roughly 300 nM.
